For 1 molecule, melting point results are on record in patent publication US20090137811A1 (published 2009).

For orientation: melting point means the temperature, or range, at which the solid turns liquid.

“And” between values parts separate entries of the source, which are not always exact repeats. Equal entries are not always repeated.

`COc1cc2c(cc1OC)C(=O)C(C(=O)c1ccncc1)C2` (stereo not shown): the melting point was 204 to 207 °C and 203 to 206 °C.
